Data as given in US8080252B2, “Compounds and methods of modulating angiogenesis” (The Cleveland Clinic Foundation, priority 2006, dated 2011).
Non-standard residues stand in square brackets, D forms with d. No end group written: not given here. pY = N[C@@H](Cc1ccc(OP(=O)(O)O)cc1)C(=O)O

Tests used:
Assay type in all cases: cell-based
[1] = test system: αvβ3 integrin; assay: Fibrinogen binding assay, WT and DiYF mouse lung endothelial cells (FACS); conditions: 20 ng/ml VEGF or 1 mM MnCl2
Procedure: To assess fibrinogen binding, semiconfluent wild type and DiYF mouse lung endothelial cells were serum starved for 4 h and further induced with 20 ng/ml VEGF-165, 20 ng/ml b-FGF or 1 mm MnCl2. Fluorescein isothiocyanate (FITC)-labeled fibrinogen was added at a final concentration of 200 nM for 45 min. […] Fluorescence-activated cell sorting (FACS) was performed using a FACS Calibur (Becton Dickinson, San Jose, Calif.) and data were analyzed using CellQuest software program.

[2] = test system: αvβ3 integrin; assay: WOW-1 binding assay, WT and DiYF mouse lung endothelial cells (FACS); conditions: 20 ng/ml VEGF or 1 mM MnCl2
Procedure: Wild type and DiYF mouse lung endothelial cells were serum starved for 4 h and further stimulated with 20 ng/ml VEGF-165, 20 ng/ml b-FGF or 1 mm MnCl2 separately. WoW-1 Fab was added at a final concentration of […], followed by addition of Fluorescein isothiocyanate (FITC) conjugated goat anti-mouse IgG at 10 μg/ml. After 30 min cells were fixed with 3.7% formaldehyde/PBS for 15 min, washed twice with 1×PBS and FACS was performed using a FACS Calibur (Becton Dickinson, San Jose, Calif.) instrument and data were analyzed using CellQuest software program.

[3] = test system: cells expressing αvβ3 integrin and VEGFR2; assay: Angiogenesis of cells expressing αvβ3 integrin and VEGFR2 with stimulating peptides; conditions: both in the presence and the absence of VEGF

Row | Molecule | increase of fibrinogen binding ([1]; DiYF EC) [fold] | increase of fibrinogen binding ([1]; WT EC) | increase in WOW-1 binding ([2]; DiYF EC) [fold] | increase in WOW-1 binding ([2]; WT EC) [fold] | effect on angiogenesis [3]
1 | [Cl][Mn][Cl] [MnCl2, reference compound] | 17 | at least 40 fold | 14 | 30 | –
2 | KEATSTFTNITYpRGT-COOH (KEATSTFTNIT[pY]RGT-OH; N-terminus assumed; SMILES CC[C@H](C)[C@H](NC(=O)[C@H](CC(N)=O)NC(=O)[C@@H](NC(=O)[C@H](Cc1ccccc1)NC(=O)[C@@H](NC(=O)[C@H](CO)NC(=O)[C@@H](NC(=O)[C@H](C)NC(=O)[C@H](CCC(=O)O)NC(=O)[C@@H](N)CCCCN)[C@@H](C)O)[C@@H](C)O)[C@@H](C)O)C(=O)N[C@H](C(=O)N[C@@H](Cc1ccc(OP(=O)(O)O)cc1)C(=O)N[C@@H](CCCNC(=N)N)C(=O)NCC(=O)N[C@H](C(=O)O)[C@@H](C)O)[C@@H](C)O; listed as Homo sapiens) [SEQ ID NO: 15, stimulating peptide; β3 integrin cytoplasmic peptide specific for tyrosine-759] | – | – | – | – | promote angiogenesis
3 | YGRKKRRQRRRGKEATSTFTNITYpRGT-COOH (YGRKKRRQRRRGKEATSTFTNIT[pY]RGT-OH; N-terminus assumed; SMILES CC[C@H](C)[C@H](NC(=O)[C@H](CC(N)=O)NC(=O)[C@@H](NC(=O)[C@H](Cc1ccccc1)NC(=O)[C@@H](NC(=O)[C@H](CO)NC(=O)[C@@H](NC(=O)[C@H](C)NC(=O)[C@H](CCC(=O)O)NC(=O)[C@H](CCCCN)NC(=O)CNC(=O)[C@H](CCCNC(=N)N)NC(=O)[C@H](CCCNC(=N)N)NC(=O)[C@H](CCCNC(=N)N)NC(=O)[C@H](CCC(N)=O)NC(=O)[C@H](CCCNC(=N)N)NC(=O)[C@H](CCCNC(=N)N)NC(=O)[C@H](CCCCN)NC(=O)[C@H](CCCCN)NC(=O)[C@H](CCCNC(=N)N)NC(=O)CNC(=O)[C@@H](N)Cc1ccc(O)cc1)[C@@H](C)O)[C@@H](C)O)[C@@H](C)O)C(=O)N[C@H](C(=O)N[C@@H](Cc1ccc(OP(=O)(O)O)cc1)C(=O)N[C@@H](CCCNC(=N)N)C(=O)NCC(=O)N[C@H](C(=O)O)[C@@H](C)O)[C@@H](C)O; listed as Homo sapiens) [SEQ ID NO: 13, stimulating peptide] | – | – | – | – | promote angiogenesis
